{"source": "patent US9040573B2", "about": "“Anti-fungal agent” (Nihon Nohyaku Co., Ltd., priority 2011, dated 2015)", "key": {"Scytalidium dimidiatum": {"system": "Scytalidium dimidiatum", "test": "Antifungal Activity Test 1: MIC by broth microdilution method (Alamar Blue)", "assay_type": "cell-based", "conditions": "Neoscytalidium dimidiatum; for MIC: growth inhibited by 80% or more, read-out: MIC", "excerpt": "Scytalidium dimidiatum strain of clinical isolate obtained by separation and identification from nail or stratum corneum of patients with superficial mycosis was used. The fungi pre-cultured on an SDA medium was suspended in 0.1% (w/v) Tween 80-containing sterile saline and the suspension was filtered through gauze to collect arthrospore. This was suspended in 0.1% (w/v) Tween 80-containing sterile saline, and added to a 20% Alamar Blue-containing medium to 2×10^4 cells/mL to give a fungal inoculum solution.\n(§1) Each drug was used after dissolving in DMSO (dimethyl sulfoxide).\n(§2) The minimum inhibitory concentration (MIC) was measured by a broth microdilution method. That is, RPMI1640 medium (Sigma-Aldrich) was buffered with 0.165 M morpholine propanesulfonic acid (MOPS, Wako Pure Chemical Industries, Ltd.) to pH 7.0, and a given amount of a solution of the drug in DMSO was added thereto to prepare 2-fold dilution series within the range of 0.00098-4 μg/mL. This was added to a 96-well microplate by 100 μL, a fungal inoculum solution (100 μL, final concentration of fungi to be added: 1.0×10^4 cells/mL) was added, and the mixture was cultured at 35° C. An Alamar Blue reagent was added in advance to the culture medium (final addition concentration: 10%) and, at the time point when the Alamar Blue reagent in the drug-free growth control group changed from blue to red, the culture was discontinued and the absorbance (differential optical density at 570 nm based on 590 nm served as reference) measured. The minimum concentration of the drug that inhibited the growth of the fungus in the growth control group by 80% or more was taken as MIC. The concentration to be MIC (MIC90) in 9 strains out of the 10 strains (90%) measured was determined.\nReference documents for measurement method: Takako Shinoda et al.: opinion proposed by Committee for Clinical Laboratory Standards of The Japanese Society for Medical Mycology (1995-1997), Method for antifungal susceptibility testing of filamentous fungus, Medical Mycology Journal, 40: 239-257, 1999. Clinical Laboratory Standards Institute/National Committee for Clinical Laboratory Standards. Reference method for broth dilution antifungal susceptibility testing of filamentous fungus. Approved Standard M38-A2. Wayne, Pa.: National Committee for Clinical Laboratory Standards, 2008. Test Results"}, "Scytalidium hyalinum": {"system": "Scytalidium hyalinum", "test": "Antifungal Activity Test 2: MIC by broth microdilution method (Alamar Blue)", "assay_type": "cell-based", "conditions": "Neoscytalidium hyalinum", "protocol": "as §2\nScytalidium hyalinum strain of clinical isolate available from CBS (Netherlands) was used. The fungus was pre-cultured in an SDA medium, 0.1% (w/v) Tween 80-containing sterile saline was added to give a suspension, which was filtered through gauze to collect arthrospore. This was suspended in 0.1% (w/v) Tween 80-containing sterile saline, and added to a 20% Alamar Blue-containing medium to 2×10^4 cells/mL to give a fungal inoculum solution.\nas §1\nThe test method was the same as in the aforementioned antifungal activity test 1, and the minimum concentration of the drug that inhibited the growth of the fungus in the growth control group by 80% or more was taken as MIC. The MIC range of the 4 strains measured and the geometric mean (GM) of each drug were determined."}}, "note": "Like-named read-outs stand apart in the source and are kept apart here."}
{"compound": "C[C@@H](c1ncncc1F)[C@](O)(Cn1cncn1)c1ccc(F)cc1F", "note": "[VCZ, voriconazole]", "values": [{"measurement": "MIC", "setting": "Scytalidium dimidiatum; clinical isolate 530129", "value": 0.25, "unit": "µg/mL"}, {"measurement": "MIC", "setting": "Scytalidium dimidiatum; clinical isolate 530142", "value": 0.25, "unit": "µg/mL"}, {"measurement": "MIC", "setting": "Scytalidium dimidiatum; clinical isolate 530251", "value": 0.13, "unit": "µg/mL"}, {"measurement": "MIC", "setting": "Scytalidium dimidiatum; clinical isolate 530621", "value": 0.25, "unit": "µg/mL"}, {"measurement": "MIC", "setting": "Scytalidium dimidiatum; clinical isolate 530633", "value": 0.25, "unit": "µg/mL"}, {"measurement": "MIC", "setting": "Scytalidium dimidiatum; clinical isolate 530914", "value": 0.25, "unit": "µg/mL"}, {"measurement": "MIC", "setting": "Scytalidium dimidiatum; clinical isolate 530946", "value": 0.25, "unit": "µg/mL"}, {"measurement": "MIC", "setting": "Scytalidium dimidiatum; clinical isolate 530999", "value": 0.13, "unit": "µg/mL"}, {"measurement": "MIC", "setting": "Scytalidium dimidiatum; clinical isolate 531581", "value": 0.25, "unit": "µg/mL"}, {"measurement": "MIC", "setting": "Scytalidium dimidiatum; clinical isolate 531869", "value": 0.13, "unit": "µg/mL"}, {"measurement": "MIC90", "setting": "Scytalidium dimidiatum; concentration to be MIC in 9 strains out of the 10 strains (90%), read-out: MIC90", "value": 0.25, "unit": "µg/mL"}, {"measurement": "MIC", "setting": "Scytalidium hyalinum; clinical isolate CBS200.88, growth inhibited by 80% or more, read-out: MIC", "value": 0.13, "unit": "µg/mL"}, {"measurement": "MIC", "setting": "Scytalidium hyalinum; clinical isolate CBS545.95, growth inhibited by 80% or more, read-out: MIC", "value": 0.063, "unit": "µg/mL"}, {"measurement": "MIC", "setting": "Scytalidium hyalinum; clinical isolate CBS601.85, growth inhibited by 80% or more, read-out: MIC", "value": 0.016, "unit": "µg/mL"}, {"measurement": "MIC", "setting": "Scytalidium hyalinum; clinical isolate CBS619.84, growth inhibited by 80% or more, read-out: MIC", "value": 0.13, "unit": "µg/mL"}, {"measurement": "MIC", "setting": "Scytalidium hyalinum; geometric mean of the 4 strains measured, read-out: GM (geometric mean of MIC)", "value": 0.064, "unit": "µg/mL"}, {"measurement": "MIC", "setting": "Scytalidium hyalinum; range of the 4 strains measured, read-out: MIC range", "value": "0.016 to 0.13", "unit": "µg/mL"}]}
